# Assay results as given in publication PMC10447463, “Data-mining unveils structure–property–activity correlation of viral infectivity enhancing self-assembling peptides” (Nature Communications, 2023).
# “And” between values parts separate entries of the source, which are not always exact repeats. Identical values can stand only once. Like-named read-outs stand apart in the source and are kept apart here.
# Key:
# [1] = test system: HIV-1 infection of TZM-bl cells; assay: HIV-1 infectivity enhancement assay, β-galactosidase luminescence; type: cell-based; conditions: for infectivity: infectivity class (low / medium / high) of each library peptide, main list in c1-c6, same classes repeated in sub-lists of sequences containing the hydrophobicity/charge patterns P+,H0,P+,H0,P0,H0,P0, P+,H0,P0,H0,P0,H0,P0, P+,H0,P0,H0; for Log10 Inf. rel. to EF-C: log10 of HIV-1 infection of TZM-bl cells relative to EF-C, Fig S15 source data; for Log10 Inf. rel. to EF-C / Log Infectivity: asymmetric std dev errors; for Absolute Infectivity / RLU /s (Feb2021): unrounded values of the 1.3 µM column; for Log Infectivity: Log10 infection relative to EF-C, TZM-bl cells; for Log10 Infection Rel EF-C: HIV-1 infection of TZM-bl cells
# [2] = β-sheet content by ATR-FT-IR; type: physicochemical
# In short: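 Conversion rate: fluorescamine fluorescence (ex 365/em 470 nm, 20 min RT) of 3 kDa filtrate versus unfiltered PNF, CR = 100 − 100 × filtrate/original intensity, triplicates. β-sheet content came from ATR FT-IR of lyophilized 1 mg/mL PNF powder, 64 scans.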
# [3] = Zeta-potential measurement; type: physicochemical; conditions: for Zeta-pot. / mV: zeta potential of peptide, Fig S15 source data
# In short: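 Peptides from a 10 mg/mL DMSO stock were brought to 1 mg/mL in PBS (pH 7.4) and aged 1 d at RT. Just before reading, they were diluted into 1 mM aqueous KCl, and zeta potential was calculated from electrophoretic mobility with the Smoluchowski formula.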
# [4] = Turbidity, derived count rate of scattered light; type: physicochemical
# In short: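 Samples: 1 mg/mL in PBS pH 7.4 (from DMSO), 1 d at RT, then diluted in 1 mM KCl immediately before measurement. Triplicates, two independent runs averaged.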
# [5] = Feb2021, Log10 of infectivity relative to EF-C
# [6] = Feb2021, n-fold enhancement relative to EF-C
# [7] = Feb2021, n-fold infectivity relative to EF-C
# [8] = Feb2021 run, infectivity n-fold relative to virus alone
# [9] = Feb2021 run, log10 of infectivity relative to EF-C
# [10] = Feb2021 run, n-fold infectivity relative to EF-C
# [11] = category 1 or 0 from count rate, key not given
# [12] = derived count rate of scattered light, mean, std deviation in next column
# [13] = derived count rate of scattered light, mean, std deviation in separate column
# [14] = Feb2021, 1.3 µM value relative to virus only (0 µM)
Substance,"Log10 of Rel to EFC (Feb2021) [1, 5]","Rel-to EFC (Feb-2021) [1, 6]","Rel-to EFC (Feb-2021) [1, 7]","n-fold to virus (Feb2021) [1, 8]","Log10 of Rel to EFC (Feb2021) [1, 9]","Rel-to EFC (Feb-2021) [1, 10]",infectivity [1],Log10 Inf. rel. to EF-C [1],FTIR ß-sheet content/ % [2],FTIR ß-sheet content/ % ([2]; ATR-FT-IR),Zeta category ( +1 = if > 4 mV;-1 = if < -4 mV; 0 = -4mV to 4 mV) [3],Zeta category ( +1 = if > 4 mV;-1 = if < -4 mV; 0 = -4mV to 4 mV) ([3]; category from zeta potential),"Zeta Pot. / mV ([3]; mean, Std Zeta in next column)","Zeta Pot. / mV ([3]; mean, Std in separate column)",Zeta-pot. / mV [3],"Zeta Count Rate Category [4, 11]","Zeta Count Rate / kcps [4, 12]","Zeta Count Rate / kcps [4, 13]","n-fold to virus (Feb2021) [1, 14]",Absolute Infectivity / RLU /s (Feb2021) ([1]; Feb2021),other results
QCKFKQFFNMWQ [CK10],-0.606,0.2478,0.2478,6.098,-0.606,0.2478,medium,-0.6059,41.78%,42% and 41.78%,1 (+1 = if > 4 mV),1 (+1 = if > 4 mV),9.587 mV,9.587 mV,9.587 mV,1,18911.36667 kcps,18911.36667 kcps,–,–,"n-fold to virus (Feb2021) ([1]; Feb2021, infectivity relative to virus only): 6.098; Rel-to EFC ([1]; Fig S8 panels B, D, infectivity enhancement relative to EF-C): 0.2478; n-fold to virus ([1]; Fig S8 panels B, D, infectivity n-fold relative to virus alone): 6.098; Zeta Pot. / mV [3]: 9.587 mV; Log Count Rate ([4]; Fig S8 panels B, D, log of derived count rate): 4.277; Count Rate ([4]; Fig S8 panels B, D, turbidity, derived count rate of scattered light): 18911.4; Zeta Count Rate Category ([4]; category 1 / 0, no key given): 1; Zeta Count Rate / kcps ([4]; derived count rate of scattered light): 18911.36667 kcps"
KFKFQF [JJA6],-1.213,0.06128,0.06128,2.575,-1.213,0.06128,low,-1.213,46%,46%,-1 (-1 = if < -4 mV),-1 (-1 = if < -4 mV),-11.03 mV,-11.03 mV,-11.03 mV,1,183.4 kcps,183.4 kcps,2.575,686.7 RLU /s,"Zeta Count Rate Category ([4]; category 1/0, no key printed): 1"
CKIKIQINMWQ,–,–,–,–,–,–,–,–,–,–,–,–,–,–,–,–,–,–,–,–,"Rel-EFC ([1]; 1.3 µM peptide, infection relative to EF-C (QCKIKQIINMWQ = 1)): 0,7; Log10 Infection Rel EFC ([1]; 1.3 µM peptide, log10 of infection relative to EF-C): -0,16; Log Infectivity ([1]; Fig. S7 panel A (plotted against β-sheet content)): -0.155; Log Infectivity ([1]; Fig. S7 panel B (plotted against CR), rounded to two decimals): -0.16; Log10 Infection Rel EF-C ([1]; Log10 of infection rate relative to EF-C, Figure 3A source data): -0.16; Log10 Infection Rel EF-C ([1]; infection rate relative to EF-C, log10, data of Figure 2D): -0.155; Log10 Infection Rel EF-C ([1]; infection rate relative to EF-C, log10, source data of Figure 2C): -0.155; Log10 of Rel to EFC (Feb2021) ([1]; Log10 of infection relative to EF-C, all peptides of FigS16): -0.16; b -sheet / % ([2]; Fig. S7 panel A, β-sheet content by ATR-FT-IR): 44.89%; Zeta-Pot. ([3]; zeta potential of peptide assemblies): 13.87; Zeta-Potential / mV ([3]; zeta-potential of peptide, source data of Figure 2C): 12.25 mV; Zeta-Potential / mV ([3]; zeta-potential of the peptide assemblies, mean, Figure 3A source data): 13.87 mV; Log10 Count Rate ([4]; Log10 of derived count rate of scattered light (turbidity)): 3.274; Count Rate / kcps ([4]; derived count rate of scattered light at 633 nm, 173°, from zeta-potential measurement, 0.1 mg/mL in 1 mM KCl after 1 d at 1 mg/mL in PBS, turbidity / microscopic aggregation, mean of triplicate): 1881 kcps; Log10 Count Rate ([4]; log10 of derived count rate of scattered light (turbidity)): 3.274; Log10 Count Rate ([4]; turbidity, Log10 of derived count rate of scattered light, Figure 3A source data): 3.274"
CKIKIQINMWQ [MG1],-0.155,0.6998,0.6998,29.41,-0.155,0.6998,medium,-0.155,44.89%,45% and 44.89%,1 (+1 = if > 4 mV),1 (+1 = if > 4 mV),13.87 mV,13.87 mV,13.87 mV,1,1881 kcps,1881 kcps,29.41,18623.33333 RLU /s,"Zeta Count Rate Category ([4]; category 1/0, no key printed): 1"
